Molecules are shown by their SMILES. pIC50: −log10 of the molar value.

The record followed here is US11427590B2, “Small molecule inhibitors of neutral sphingomyelinase 2 (nSMase2) for the treatment of neurodegenerative diseases” (The Johns Hopkins University, priority 2017, dated 2022).

One data set deals with human nSMase2 (Homo sapiens (Human), UniProt Q9NY59). Kind of data set: Human nSMase2 fluorescence-based activity assay. The settings on record: inhibition of nSMase2, IC50 category A-D; read-out: Activity*. In kind it is biochemical. The text has this: Figuera-Losada, et al. Lysate of cells expressing recombinant nSMase2 is used to catalyze the hydrolysis of sphingomyelin (SM) to ceramide and phosphorylcholine.
human nSMase2, sequence (Q9NY59 whole entry): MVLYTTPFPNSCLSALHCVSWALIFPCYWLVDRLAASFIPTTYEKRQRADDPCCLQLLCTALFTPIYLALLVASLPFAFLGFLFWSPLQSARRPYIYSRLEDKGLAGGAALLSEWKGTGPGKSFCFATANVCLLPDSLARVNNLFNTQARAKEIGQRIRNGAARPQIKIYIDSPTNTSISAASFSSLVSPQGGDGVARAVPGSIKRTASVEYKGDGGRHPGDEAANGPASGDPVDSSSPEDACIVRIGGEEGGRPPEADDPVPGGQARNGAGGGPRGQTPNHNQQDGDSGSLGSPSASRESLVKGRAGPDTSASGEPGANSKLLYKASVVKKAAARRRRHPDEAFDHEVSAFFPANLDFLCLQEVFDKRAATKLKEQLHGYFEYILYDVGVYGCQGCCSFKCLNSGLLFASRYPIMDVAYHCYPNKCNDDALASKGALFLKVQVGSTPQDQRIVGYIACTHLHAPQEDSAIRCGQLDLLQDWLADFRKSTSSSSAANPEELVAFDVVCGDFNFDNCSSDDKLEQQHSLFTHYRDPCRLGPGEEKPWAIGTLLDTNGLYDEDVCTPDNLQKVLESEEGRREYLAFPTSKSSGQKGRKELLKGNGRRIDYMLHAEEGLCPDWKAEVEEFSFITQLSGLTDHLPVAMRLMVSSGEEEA
For the compound `COc1ccc(-n2cnc3c(N4CC[C@@H](NC(C)=O)C4)nc(C)nc32)cc1OC` [2-PROV], the pIC50 is below 4.00.
On to `COc1ccc(-n2c(C)nc3c(N4CC[C@@H](NC(C)=O)C4)nc(C)nc32)cc1OC` [3-PROV], for which the pIC50 is below 4.00.
Still for that read-out and setting: with `COc1ccc(-c2c(C)nn3c(N4CC[C@@H](NC(C)=O)C4)cc(C)nc23)cc1OC` [4-PROV] the figure was below 4.00; with `COc1ccc(-n2c(C)nc3c(N4CC[C@@H](NC(C)=O)C4)ncnc32)cc1OC` [5-PROV], below 4.00; with `COc1ccc(-n2cnc3c(N4CC[C@@H](NC(C)=O)C4)ncnc32)cc1OC` [6-PROV], below 4.00.
Consider `COc1ccc(-c2c(C)oc3c(N4CC[C@@H](NC(C)=O)C4)cc(C)nc23)cc1OC` [8-PROV], for which the pIC50 is below 4.00.
As for `COc1ccc(-n2ncc3c(N4CC[C@@H](NC(C)=O)C4)nc(C)nc32)cc1OC` [10-PROV], the pIC50 was below 4.00.
Same read-out and setting: under `COc1ccc(-c2c3nc(C)nc(N4CC[C@@H](NC(C)=O)C4)c3nn2C)cc1OC` [12-PROV] stands below 4.00.
The same measure, in the same setting: with `COc1ccc(-c2nn(C)c3c(N4CC[C@@H](NC(C)=O)C4)nc(C)nc23)cc1OC` [13-PROV] the figure was below 4.00; with `COc1ccc(-c2csc3c(N4CC[C@@H](NC(C)=O)C4)nc(Cl)nc23)cc1OC` [24-PROV], below 4.00.
With `COc1ccc(-c2c(C)sc3c(N4CC[C@@H](NC(C)=O)C4)nc(Cl)nc23)cc1OC` [25-PROV], the pIC50 is below 4.00.
On to `COc1ccc(-c2scc3c(N4CC[C@@H](NC(C)=O)C4)nc(Cl)nc23)cc1OC` [26-PROV], for which the pIC50 is below 4.00.
As to `COc1ccc(-c2csc3c(N4CC[C@@H](NC(C)=O)C4)ncnc23)cc1OC` [27-PROV], the pIC50 is below 4.00.
Take `COc1ccc(-c2c(C)sc3c(N4CC[C@@H](NC(C)=O)C4)ncnc23)cc1OC` [28-PROV]: the pIC50 was below 4.00.
Turning to `COc1ccc(-c2c(C)sc3c(N4CC[C@@H](NC(C)=O)C4)nc(C)nc23)cc1OC` [29a-PROV], the pIC50 is below 4.00.
Turning to `COc1ccc(-c2scc3c(N4CC[C@@H](NC(C)=O)C4)nc(C)nc23)cc1OC` [29b-PROV], the pIC50 was below 4.00.
For `COc1ccc(-c2csc3c(N4CC[C@@H](NC(C)=O)C4)nc(C)nc23)cc1OC` [30-PROV], the pIC50 is below 4.00.
For `COc1ccc(-c2c(C)nn3c(N4CC[C@@H](NC(C)=O)C4)nc(C)nc23)cc1OC` [36-PROV], the pIC50 was below 4.00.

The same data set, now with this note: inhibition of nSMase2; read-out: IC50.
For the compound `CC(=O)N[C@@H]1CCN(c2cc(Cl)nn3cc(C)nc23)C1` [9-PROV], the pIC50 is below 4.00.
As to `COc1ccc(-c2c(C)nc3c(N4CC[C@@H](NC(C)=O)C4)cc(Cl)nn23)cc1` [11-PROV], the pIC50 is below 4.00.
Same read-out and setting: under `COc1cccc(-c2c(C)nc3c(N4CC[C@@H](NC(C)=O)C4)cc(Cl)nn23)c1` [14-PROV] stands below 4.00; under `CC(=O)N[C@@H]1CCN(c2ccnn3cc(C)nc23)C1` [15-PROV], below 5.00; under `CC(=O)N[C@@H]1CCN(c2cc(Cl)nn3c(-c4ccc(F)cc4)c(C)nc23)C1` [18-PROV], below 4.00.
Regarding `CC(=O)Nc1cccc(-c2c(C)nc3c(N4CC[C@@H](NC(C)=O)C4)cc(Cl)nn23)c1` [19-PROV], the pIC50 is below 4.00.
`COc1cccc(-c2c(C)nc3c(N4CC[C@@H](NC(C)=O)C4)cc(C)nn23)c1` [20-PROV]: the pIC50 was below 6.00.
Take `CC(=O)Nc1cccc(-c2c(C)nc3c(N4CC[C@@H](NC(C)=O)C4)cc(C)nn23)c1` [22-PROV]: the pIC50 was below 6.00.
`CC(=O)N[C@@H]1CCN(c2cc(C)nn3c(I)c(C)nc23)C1` [23-PROV]: the pIC50 is below 5.00.
Consider `COc1cc(N2CC[C@@H](NC(C)=O)C2)c2nc(C)c(-c3ccc(OC)c(OC)c3)n2n1` [38-PROV], for which the pIC50 is below 6.00.
On the same count and under the same terms, under `CC(=O)N[C@@H]1CCN(c2cc(C)nn3c(-c4ccc5c(c4)OCO5)c(C)nc23)C1` [40-PROV] stands at least 6.00; under `CC(=O)N[C@@H]1CCN(c2cc(C)nn3c(-c4cccc(S(C)(=O)=O)c4)c(C)nc23)C1` [42-PROV], below 6.00.
Take `CC(=O)N[C@@H]1CCN(c2cc(C)nn3c(-c4ccc(O)cc4)c(C)nc23)C1` [47-PROV]: the pIC50 is at least 6.00.
`CC(=O)N[C@@H]1CCN(c2cc(C)nn3c(C)c(C)nc23)C1` [48-PROV]: the pIC50 was below 6.00.

Tested on in a further data set: not listed separately
Nature of the data set: Phase I metabolic stability in human liver microsomes. The data set is classed as in vitro ADME. The settings on record: 37° C. How it is done: (§1) Phase I metabolic stability in both mouse and human liver microsomes was performed as described previously. Rais et al. Briefly, compounds are spiked in liver microsomes (mouse, human) and incubated in an orbital shaker at 37° C. […] Compound disappearance is monitored over time using LC/MS/MS.
In the case of `CC(=O)N[C@@H]1CCN(c2cc(C)nn3c(-c4cccs4)c(C)nc23)C1` [compound 13, (R)—N-(1-(2,6-dimethyl-3-(thiophen-2-yl)imidazo[1,2-b]pyridazin-8-yl)pyrrolidin-3-yl)acetamide], the “Human Liver Microsome (+) NADPH Remaining at 60 min” value amounted to 50 ± 4%.
Same read-out and setting: with `CC(=O)N[C@@H]1CCN(c2cc(C)nn3c(-c4ccc(OC(F)(F)F)cc4)c(C)nc23)C1` [compound 17, (R)—N-(1-(2,6-dimethyl-3-(4-(trifluoromethoxy)phenyl)imidazo[1,2-b]pyridazin-8-yl)pyrrolidin-3-yl)acetamide] the figure was 114 ± 4%.
For `COc1ccc(-c2c(C)nc3c(N4CC[C@@H](NS(=O)(=O)c5ccc(C)cc5)C4)cc(C)nn23)cc1OC` [compound 22, (R)—N-(1-(3-(3,4-dimethoxyphenyl)-2,6-dimethylimidazo[1,2-b]pyridazin-8-yl)pyrrolidin-3-yl)-4-methylbenzenesulfonamide], the “Human Liver Microsome (+) NADPH Remaining at 60 min” value turned out to be 29 ± 1%.
Same read-out and setting: with `COc1ccc(-c2c(C)nc3c(N4CC[C@@H](NS(=O)(=O)c5ccc(C(C)=O)cc5)C4)cc(C)nn23)cc1OC` [compound 23, (R)-4-acetyl-N-(1-(3-(3,4-dimethoxyphenyl)-2,6-dimethylimidazo[1,2-b]pyridazin-8-yl)pyrrolidin-3-yl)benzenesulfonamide] the figure was 12 ± 3%; with `COc1ccc(-c2c(C)nc3c(N4CC[C@@H](NS(=O)(=O)c5ccccc5)C4)cc(C)nn23)cc1OC` [compound 28, (R)—N-(1-(3-(3,4-dimethoxyphenyl)-2,6-dimethylimidazo[1,2-b]pyridazin-8-yl)pyrrolidin-3-yl)benzenesulfonamide], 43 ± 6%; with `COc1ccc(-c2c(C)nc3c(N4CC[C@@H](NS(=O)(=O)c5ccc(Cl)cc5)C4)cc(C)nn23)cc1OC` [compound 29, (R)-4-chloro-N-(1-(3-(3,4-dimethoxyphenyl)-2,6-dimethylimidazo[1,2-b]pyridazin-8-yl)pyrrolidin-3-yl)benzenesulfonamide], 32 ± 6%.
Still for that read-out and setting: with `COc1ccc(-c2c(C)nc3c(N4CC[C@@H](NC(=O)C(F)(F)F)C4)cc(C)nn23)cc1OC` [compound 35, (R)—N-(1-(3-(3,4-dimethoxyphenyl)-2,6-dimethylimidazo[1,2-b]pyridazin-8-yl)pyrrolidin-3-yl)-2,2,2-trifluoroacetamide] the figure was 113 ± 8%; with `COc1ccc(-c2c(C)nc3c(N4CC[C@@H](NC(=O)C(F)(F)c5ccccc5)C4)cc(C)nn23)cc1OC` [compound 37, (R)—N-(1-(3-(3,4-dimethoxyphenyl)-2,6-dimethylimidazo[1,2-b]pyridazin-8-yl)pyrrolidin-3-yl)-2,2-difluoro-2-phenylacetamide], 20 ± 2%.

Tested on in the next data set: not listed separately
Nature of the data set: Phase I metabolic stability in mouse liver microsomes. In kind it is in vitro ADME. To be noted: 37° C. How it is done:
as §1
In general terms: Liver microsomes are a subcellular fraction often used to study metabolism.
In the case of `CC(=O)N[C@@H]1CCN(c2cc(C)nn3c(-c4cccs4)c(C)nc23)C1` [compound 13, (R)—N-(1-(2,6-dimethyl-3-(thiophen-2-yl)imidazo[1,2-b]pyridazin-8-yl)pyrrolidin-3-yl)acetamide], the “Mouse Liver Microsome (+) NADPH % Remaining at 60 min” value turned out to be 28 ± 2%.
On to `CC(=O)N[C@@H]1CCN(c2cc(C)nn3c(-c4ccc(OC(F)(F)F)cc4)c(C)nc23)C1` [compound 17, (R)—N-(1-(2,6-dimethyl-3-(4-(trifluoromethoxy)phenyl)imidazo[1,2-b]pyridazin-8-yl)pyrrolidin-3-yl)acetamide], for which the “Mouse Liver Microsome (+) NADPH % Remaining at 60 min” value is recorded as 72 ± 6%.
Turning to `COc1ccc(-c2c(C)nc3c(N4CC[C@@H](NS(=O)(=O)c5ccc(C)cc5)C4)cc(C)nn23)cc1OC` [compound 22, (R)—N-(1-(3-(3,4-dimethoxyphenyl)-2,6-dimethylimidazo[1,2-b]pyridazin-8-yl)pyrrolidin-3-yl)-4-methylbenzenesulfonamide], the “Mouse Liver Microsome (+) NADPH % Remaining at 60 min” value stood at 2 ± 1%.
The same measure, in the same setting: with `COc1ccc(-c2c(C)nc3c(N4CC[C@@H](NS(=O)(=O)c5ccc(C(C)=O)cc5)C4)cc(C)nn23)cc1OC` [compound 23, (R)-4-acetyl-N-(1-(3-(3,4-dimethoxyphenyl)-2,6-dimethylimidazo[1,2-b]pyridazin-8-yl)pyrrolidin-3-yl)benzenesulfonamide] the figure was 5 ± 1%; with `COc1ccc(-c2c(C)nc3c(N4CC[C@@H](NS(=O)(=O)c5ccccc5)C4)cc(C)nn23)cc1OC` [compound 28, (R)—N-(1-(3-(3,4-dimethoxyphenyl)-2,6-dimethylimidazo[1,2-b]pyridazin-8-yl)pyrrolidin-3-yl)benzenesulfonamide], 20 ± 1%.
Same read-out and setting: under `COc1ccc(-c2c(C)nc3c(N4CC[C@@H](NS(=O)(=O)c5ccc(Cl)cc5)C4)cc(C)nn23)cc1OC` [compound 29, (R)-4-chloro-N-(1-(3-(3,4-dimethoxyphenyl)-2,6-dimethylimidazo[1,2-b]pyridazin-8-yl)pyrrolidin-3-yl)benzenesulfonamide] stands 7 ± 2%.
As for `COc1ccc(-c2c(C)nc3c(N4CC[C@@H](NC(=O)C(F)(F)F)C4)cc(C)nn23)cc1OC` [compound 35, (R)—N-(1-(3-(3,4-dimethoxyphenyl)-2,6-dimethylimidazo[1,2-b]pyridazin-8-yl)pyrrolidin-3-yl)-2,2,2-trifluoroacetamide], the “Mouse Liver Microsome (+) NADPH % Remaining at 60 min” value is on record as 117 ± 8%.
For the compound `COc1ccc(-c2c(C)nc3c(N4CC[C@@H](NC(=O)C(F)(F)c5ccccc5)C4)cc(C)nn23)cc1OC` [compound 37, (R)—N-(1-(3-(3,4-dimethoxyphenyl)-2,6-dimethylimidazo[1,2-b]pyridazin-8-yl)pyrrolidin-3-yl)-2,2-difluoro-2-phenylacetamide], the “Mouse Liver Microsome (+) NADPH % Remaining at 60 min” value amounted to 6 ± 1%.
